According to PubChem BioAssay AID1963832 (Molecular Pharmacology Branch, DTP, NCI, 2024):

System: 885724-159-R-J1-PDC complex spheroid viability
Assay: Anticancer human tumor 885724-159-R-J1-PDC patient-derived pancreatic adenocarcinoma cell line growth inhibition [POLQ]
Conditions: for IC50: curve of first compound; for viability, T/C: stronger effect = lower value
Procedure: Multicellular complex tumor spheroid response to Polymerase (POL) inhibitors (novobiocin, ART-558, RP6685) in combination with a variety of drugs and investigational agents in selected tumor cell lines
The POL inhibitors (novobiocin, ART-558, and RP6685) were evaluated both individually and in combination with standard of care and investigational anticancer small molecules within a complex spheroid model of solid tumors. . Complex spheroids include a stromal component modeled by human endothelial cells (HUVEC) and fibroblasts modeled by human mesenchymal stem cells (MSCs). The concentration ranges selected for each drug and investigational agent were based upon clinically achievable concentrations if the clinical Cmax of the agent was known.
Compounds. The drugs and investigational agents: novobiocin (NSC847541), ART-558 (NSC835418), RP-6685 (NSC848927), peposertib (NSC802822), ceralasertib (NSC780249), elimusertib (NSC800525), camonsertib (NSC841442), AZD-1390 (NSC803789), olaparib (NSC753686), talazoparib (NSC767125), rucaparib (NSC756644), sotorasib (NSC818433), MRTX-1133 (NSC836407), SN-38 (NSC673596), topotecan (NSC609699), epotoside (NSC141540), doxorubicin (NSC123127), gemcitabine (NSC613327), 5-fluorouracil (NSC19893), paclitaxel (NSC125973), vemurafenib (NSC761431), MSA-2 (NSC828583), SN-011 (NSC837082), adavosertib (NSC754352), prexasertib (NSC758257), carboplatin (NSC241240) and oxaliplatin (NSC266046), were obtained from the National Cancer Institute (NCI) Developmental Therapeutics Program Chemical Repository (21). The FDA-approved anticancer drug set is available from the Developmental Therapeutics Program at https://dtp.cancer.gov/organization/dscb/obtaining/. […] The stock solutions were prepared in dimethyl sulfoxide (DMSO, Sigma-Aldrich, St. Louis, MO, cat. D2650), except for the platinum compounds which were prepared in saline (Quality Biological, Gaithersburg, MD, cat. 114-055-101), at 800-fold the tested concentration and stored at -70 degrees C prior to their use. All drugs and investigational agents were tested over a range starting from a high concentration at or near the clinical Cmax and decreasing in half-log increments. If the clinical Cmax for an agent had not been determined, the highest concentration tested was 10 microM, except for SN-38, which was tested at a high concentration of 1 microM.
Cell Culture. All cells were maintained in an incubator at 37 degrees C and 5% CO2 with 95% humidity. The PDC lines were cultured according to standard operating procedures established by the NCI PDMR (https://pdmr.cancer.gov). Table 3 of the manuscript, lists the cell lines along with the number of the three cell types plated to form the mct-spheroids and media for tumor cell growth. After thawing, all PDC lines, except 997537-175-T-J1-PDC and 415267-285-R-J2-PDC, were cultured in Matrigel-coated flasks prepared with a working solution of 1X Ham's F-12 nutrient mix, without supplementation (Thermo Fisher Scientific, cat. 11765054), 100 U/mL penicillin-streptomycin (Thermo Fisher Scientific, cat. 15140122), and 2.5% Matrigel (Corning Inc., Corning, NY, cat. 354248) for the first three passages. The two PDC lines 997537-175-T-J1-PDC and 415267-285-R-J2-PDC were cultured on uncoated flasks. The 857933-349-R-J2-PDC line was cultured in 6C/Colon 1B media containing advanced DMEM/F-12 (Thermo Fisher Scientific, cat. 12634028), 10 mM HEPES (Thermo Fisher Scientific, cat. 15630080), 1X GlutaMAX supplement (Thermo Fisher Scientific, cat. 35050061), 0.1 mg/mL primocin (InvivoGen, San Diego, CA, cat. ant-pm-2), 10% defined fetal bovine serum, heat inactivated (HyClone Laboratories Inc., Logan, UT, cat. SH30070.03HI), 50% L-WRN conditioned media (ATCC, cat. CRL-3276), 1.25 mM N-Acetyl-L-cysteine (Sigma-Aldrich, cat. A9165), 10 mM nicotinamide (Sigma-Aldrich, cat. N0636), 1X B-27 supplement (Thermo Fisher Scientific, cat. 17504044), 1X N-2 supplement (Thermo Fisher Scientific, cat. […]

[1] = second compound 0.0316 µM, first compound 0.0316 µM
[2] = second compound 0.0316 µM, first compound 0.1 µM
[3] = second compound 0.0316 µM, first compound 0.316 µM
[4] = second compound 0.0316 µM, first compound 1 µM
[5] = second compound 0.0316 µM, first compound 3.16 µM
[6] = second compound 0.0316 µM, first compound 10 µM
[7] = second compound 0.1 µM, first compound 0.0316 µM
[8] = second compound 0.1 µM, first compound 0.1 µM
[9] = second compound 0.1 µM, first compound 0.316 µM
[10] = second compound 0.1 µM, first compound 1 µM
[11] = second compound 0.1 µM, first compound 3.16 µM
[12] = second compound 0.1 µM, first compound 10 µM
[13] = second compound 0.316 µM, first compound 0.0316 µM
[14] = second compound 0.316 µM, first compound 0.1 µM
[15] = second compound 0.316 µM, first compound 0.316 µM
[16] = second compound 0.316 µM, first compound 1 µM
[17] = second compound 0.316 µM, first compound 3.16 µM
[18] = second compound 0.316 µM, first compound 10 µM
[19] = second compound 1 µM, first compound 0.0316 µM
[20] = second compound 1 µM, first compound 0.1 µM
[21] = second compound 1 µM, first compound 0.316 µM
[22] = second compound 1 µM, first compound 1 µM
[23] = second compound 1 µM, first compound 3.16 µM
[24] = second compound 1 µM, first compound 10 µM
[25] = second compound 3.16 µM, first compound 0.0316 µM
[26] = second compound 3.16 µM, first compound 0.1 µM
[27] = second compound 3.16 µM, first compound 0.316 µM
[28] = second compound 3.16 µM, first compound 1 µM
[29] = second compound 3.16 µM, first compound 3.16 µM
[30] = second compound 3.16 µM, first compound 10 µM
[31] = second compound 10 µM, first compound 0.0316 µM
[32] = second compound 10 µM, first compound 0.1 µM
[33] = second compound 10 µM, first compound 0.316 µM
[34] = second compound 10 µM, first compound 1 µM
[35] = second compound 10 µM, first compound 3.16 µM
[36] = second compound 10 µM, first compound 10 µM
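Note: spheroids exposed to compounds for 7 days.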

CC1COCCN1c1cc(C2(O)CC3CCC(C2)O3)c2cnn(-c3ccn[nH]3)c2n1 (centres undefined) + COC1C(OC(N)=O)C(O)C(Oc2ccc3c(O)c(NC(=O)c4ccc(O)c(CC=C(C)C)c4)c(=O)oc3c2C)OC1(C)C
IC50 (second compound 0.0316 µM): 139 nM
IC50 (second compound 0.1 µM): 150 nM
IC50 (second compound 0.316 µM): 98.2 nM
IC50 (second compound 1 µM): 139 nM
IC50 (second compound 3.16 µM): 96 nM
IC50 (second compound 10 µM): 102 nM
viability, T/C [1]: 74.7%
viability, T/C [2]: 49.8%
viability, T/C [3]: 38.8%
viability, T/C [4]: 41.8%
viability, T/C [5]: 31.5%
viability, T/C [6]: 23.2%
viability, T/C [7]: 73.3%
viability, T/C [8]: 51.4%
viability, T/C [9]: 40%
viability, T/C [10]: 41.4%
viability, T/C [11]: 31.9%
viability, T/C [12]: 24.7%
viability, T/C [13]: 63.1%
viability, T/C [14]: 50.4%
viability, T/C [15]: 39%
viability, T/C [16]: 34.8%
viability, T/C [17]: 32.5%
viability, T/C [18]: 28.6%
viability, T/C [19]: 75.1%
viability, T/C [20]: 52%
viability, T/C [21]: 39.7%
viability, T/C [22]: 38.1%
viability, T/C [23]: 31.2%
viability, T/C [24]: 25.4%
viability, T/C [25]: 68.1%
viability, T/C [26]: 44.8%
viability, T/C [27]: 42.5%
viability, T/C [28]: 35.8%
viability, T/C [29]: 31.8%
viability, T/C [30]: 26.4%
viability, T/C [31]: 61.1%
viability, T/C [32]: 50.5%
viability, T/C [33]: 40.8%
viability, T/C [34]: 34.5%
viability, T/C [35]: 34.9%
viability, T/C [36]: 26.3%

O=C(Nc1ccc(O)c(NS(=O)(=O)c2ccc(F)cc2)c1)c1ccc(-c2ccccc2)cc1 + COC1C(OC(N)=O)C(O)C(Oc2ccc3c(O)c(NC(=O)c4ccc(O)c(CC=C(C)C)c4)c(=O)oc3c2C)OC1(C)C
IC50 (second compound 0.0316 µM): > 10000 nM
IC50 (second compound 0.1 µM): > 10000 nM
IC50 (second compound 0.316 µM): > 10000 nM
IC50 (second compound 1 µM): > 10000 nM
IC50 (second compound 3.16 µM): > 10000 nM
IC50 (second compound 10 µM): > 10000 nM
viability, T/C [1]: 90.9%
viability, T/C [2]: 91.9%
viability, T/C [3]: 92.7%
viability, T/C [4]: 102%
viability, T/C [5]: 98.6%
viability, T/C [6]: 72.9%
viability, T/C [7]: 104%
viability, T/C [8]: 96.7%
viability, T/C [9]: 98.1%
viability, T/C [10]: 104%
viability, T/C [11]: 109%
viability, T/C [12]: 72.7%
viability, T/C [13]: 105%
viability, T/C [14]: 95.6%
viability, T/C [15]: 90%
viability, T/C [16]: 107%
viability, T/C [17]: 106%
viability, T/C [18]: 87.3%
viability, T/C [19]: 107%
viability, T/C [20]: 96%
viability, T/C [21]: 95%
viability, T/C [22]: 100%
viability, T/C [23]: 102%
viability, T/C [24]: 71.4%
viability, T/C [25]: 96.6%
viability, T/C [26]: 92%
viability, T/C [27]: 95.1%
viability, T/C [28]: 94.1%
viability, T/C [29]: 101%
viability, T/C [30]: 84.1%
viability, T/C [31]: 94.8%
viability, T/C [32]: 97.3%
viability, T/C [33]: 94.6%
viability, T/C [34]: 97.1%
viability, T/C [35]: 108%
viability, T/C [36]: 75.8%
